From patent US9346761B2, “Arginine methyltransferase inhibitors and uses thereof” (Epizyme, Inc., priority 2013, dated 2016) come the findings set out here.

The target in this experiment is T1, Full-length human PRMT3 (Homo sapiens, UniProt O60678).
T1 construct: GST-tagged PRMT3; made in house; host or cells: E. coli BL21(DE3) Gold (pGEX-KG)
Kind of experiment: PRMT3 biochemical assay (3H-SAM Flashplate, peptide substrate). In short, it runs like this:
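GST-tagged full-length PRMT3 (0.5 nM, E. coli-expressed) preincubated 30 min at room temperature with compound, then 330 nM biotinylated peptide, 100 nM 3H-SAM plus 1.8 uM SAM in Bicine pH 7.6, 2% DMSO.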

T1 sequence (O60678 with tags, fused parts or gaps): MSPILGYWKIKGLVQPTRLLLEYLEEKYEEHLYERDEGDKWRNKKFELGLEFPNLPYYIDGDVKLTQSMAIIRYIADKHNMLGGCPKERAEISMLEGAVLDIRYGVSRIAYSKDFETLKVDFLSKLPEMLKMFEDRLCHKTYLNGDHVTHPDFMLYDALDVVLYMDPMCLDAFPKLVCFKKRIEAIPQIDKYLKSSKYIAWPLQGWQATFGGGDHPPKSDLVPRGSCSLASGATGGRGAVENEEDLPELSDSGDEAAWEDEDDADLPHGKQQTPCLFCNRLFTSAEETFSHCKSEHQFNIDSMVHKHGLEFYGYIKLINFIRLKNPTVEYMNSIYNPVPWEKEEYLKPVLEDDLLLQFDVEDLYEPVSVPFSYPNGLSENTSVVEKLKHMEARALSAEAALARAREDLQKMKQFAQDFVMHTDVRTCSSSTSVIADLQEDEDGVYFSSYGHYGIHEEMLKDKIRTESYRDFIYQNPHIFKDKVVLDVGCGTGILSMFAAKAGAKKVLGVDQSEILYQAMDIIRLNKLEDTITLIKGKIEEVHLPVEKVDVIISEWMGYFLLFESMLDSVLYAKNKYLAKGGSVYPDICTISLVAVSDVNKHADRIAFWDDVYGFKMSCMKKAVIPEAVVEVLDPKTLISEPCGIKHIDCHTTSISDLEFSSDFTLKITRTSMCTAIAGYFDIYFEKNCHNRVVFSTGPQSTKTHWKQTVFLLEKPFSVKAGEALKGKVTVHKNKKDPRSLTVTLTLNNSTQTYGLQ

Consider `CNCCN(C)Cc1cn(C2CC2)nc1-c1ccc(F)cc1` [Compound 13], for which the IC50 (in general, the concentration that inhibits the measured activity by half) was > 10 µM.

As to `CNCCN(C)Cc1cnn(C2CC2)c1-c1ccc(F)cc1` [Compound 14], the IC50 was > 10 µM. Then `CNCCN(C)Cc1cn(C(C)C)nc1-c1ccc(F)cc1` [Compound 15], with > 10 µM; and `CNCCN(C)Cc1cnn(C(C)C)c1-c1ccc(F)cc1` [Compound 16], with > 10 µM. With `CNCCN(C)Cc1cn[nH]c1-c1ccc(C#N)cc1` [Compound 17], the half-maximal inhibitory concentration (IC50) lay within 1.01 to 3 µM.

The molecule `CNCCN(C)Cc1cn[nH]c1-c1cc(F)cc(F)c1` [Compound 18] displayed an IC50 of 3.01 to 10 µM.

Turning to `CCCc1ccc(-c2n[nH]cc2CN(C)CCNC)cc1` [Compound 20], the half-inhibitory concentration (IC50) was 3.01 to 10 µM.

Molecule `CNCCN(C)Cc1c[nH]nc1-c1cccc([N+](=O)[O-])c1` [Compound 21] gave an IC50 of 1.01 to 3 µM.

As to `CNCCN(C)Cc1c[nH]nc1-c1cccc(C#N)c1` [Compound 22], the IC50 was > 10 µM. As to `CNCCN(C)Cc1c[nH]nc1-c1ccccc1OC` [Compound 23], the IC50 is > 10 µM. As for `CNCCN(C)Cc1c[nH]nc1-c1cccc(OC)c1` [Compound 24], the figure is > 10 µM; as for `CNCCN(C)Cc1c[nH]nc1-c1ccc(OC)cc1` [Compound 25], > 10 µM; as for `CNCCN(C)Cc1c[nH]nc1-c1cccc(O)c1` [Compound 26], > 10 µM. As for `CNCCN(C)Cc1c[nH]nc1-c1ccc(O)cc1` [Compound 27], the figure is > 10 µM; as for `CNCCN(C)Cc1c[nH]nc1-c1ccc(CO)cc1` [Compound 28], 0.101 to 1 µM; as for `CNCCN(C)Cc1c[nH]nc1-c1ccc(C)cc1C` [Compound 29], > 10 µM. Then `CNCCN(C)Cc1cn(CCCC(O)CO)nc1-c1ccc(F)cc1` (centres unmarked) [Compound 30], with > 10 µM. As for `CNCCN(C)Cc1cnn(CCCC(O)CO)c1-c1ccc(F)cc1` (centres unmarked) [Compound 31], the IC50 was > 10 µM. Then `CNCCN(C)Cc1c[nH]nc1-c1ccc(N)cc1` [Compound 33], with 1.01 to 3 µM. In turn, `CNCCN(C)Cc1c[nH]nc1-c1ccc(Oc2ccccc2)cc1` [Compound 37] yielded an IC50 of 0.101 to 1 µM. Regarding `CNCCN(C)Cc1c[nH]nc1-c1ccccc1C(F)(F)F` [Compound 38], the IC50 was > 10 µM. Then `CNCCN(C)Cc1c[nH]nc1-c1ccccc1OC(F)(F)F` [Compound 40], with > 10 µM; and `CCNC(=O)c1cccc(-c2n[nH]cc2CN(C)CCNC)c1` [Compound 43], with > 10 µM.
